Assay results as given in patent US11351178B2, “Selective HDAC6 inhibitors” (ITALFARMACO S.P.A., priority 2017, dated 2022).

Legend:
[1] = biological target: T1, HDAC2 (Homo sapiens, UniProt Q92769); assay: Enzymatic test HDAC2; assay type: biochemical; conditions: Table 3
T1 construct: purchased BPS 50002

[2] = biological target: T2, HDAC8 (Homo sapiens, UniProt Q9BY41); assay: Enzymatic test HDAC8; assay type: biochemical; conditions: Table 3
T2 construct: purchased BPS 50008
T2 sequence (Q9BY41 1-377): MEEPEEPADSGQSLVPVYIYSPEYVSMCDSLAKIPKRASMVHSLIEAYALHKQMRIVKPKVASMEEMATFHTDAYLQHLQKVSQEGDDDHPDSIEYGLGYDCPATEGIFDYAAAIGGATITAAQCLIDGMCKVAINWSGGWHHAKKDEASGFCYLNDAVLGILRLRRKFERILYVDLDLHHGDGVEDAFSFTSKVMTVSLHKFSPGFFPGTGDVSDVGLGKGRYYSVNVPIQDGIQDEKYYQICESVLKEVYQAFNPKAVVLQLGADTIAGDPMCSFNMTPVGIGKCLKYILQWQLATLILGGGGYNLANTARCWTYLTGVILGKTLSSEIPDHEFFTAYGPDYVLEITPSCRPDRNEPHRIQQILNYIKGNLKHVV

[3] = biological target: T3, HDAC4 (Homo sapiens, UniProt P56524); assay: Enzymatic test HDAC4; assay type: biochemical; conditions: Table 3
T3 construct: purchased BPS 50004
T3 sequence (P56524 627-1084 limits assumed): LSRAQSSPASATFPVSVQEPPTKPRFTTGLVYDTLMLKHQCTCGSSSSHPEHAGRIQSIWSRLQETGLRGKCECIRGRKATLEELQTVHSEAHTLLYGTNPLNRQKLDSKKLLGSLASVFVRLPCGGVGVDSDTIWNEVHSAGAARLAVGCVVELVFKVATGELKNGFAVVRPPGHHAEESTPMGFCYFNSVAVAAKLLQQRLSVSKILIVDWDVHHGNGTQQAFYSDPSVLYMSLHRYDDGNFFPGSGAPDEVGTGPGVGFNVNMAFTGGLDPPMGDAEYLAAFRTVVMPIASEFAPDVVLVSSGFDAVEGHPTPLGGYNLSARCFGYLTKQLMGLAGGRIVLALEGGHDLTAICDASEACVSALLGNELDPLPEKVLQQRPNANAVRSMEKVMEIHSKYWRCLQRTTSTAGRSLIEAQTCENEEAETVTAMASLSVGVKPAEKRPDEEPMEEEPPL
Method: (§1) After a period of incubation at 30° C. (incubation times vary for different isoforms and are shown in table 1) 25 μL of solution containing the substrate were added. As substrate, FLUOR DE LYS® deacetylase substrate (Enzo Life Sciences, cat #BML-K1104, FdL), FLUOR DE LYS®-Green substrate (Enzo Life Sciences, cat #BML-K1572 FdL_G) and trifluoroacetyl-L-lysine (Tfal)-2× concentrated solution in 25 mM Tris-HCl, pH 8, 130 mM NaCl 0.05% Tween-20 10% glycerol) were used. Following a reaction period at 30° C.

[4] = biological target: T4, HDAC9 (Homo sapiens, UniProt Q9UKV0); assay: Enzymatic test HDAC9; assay type: biochemical; conditions: Table 3
T4 construct: purchased BPS 50009
T4 sequence (Q9UKV0 1-1066 isoform Q9UKV0-5): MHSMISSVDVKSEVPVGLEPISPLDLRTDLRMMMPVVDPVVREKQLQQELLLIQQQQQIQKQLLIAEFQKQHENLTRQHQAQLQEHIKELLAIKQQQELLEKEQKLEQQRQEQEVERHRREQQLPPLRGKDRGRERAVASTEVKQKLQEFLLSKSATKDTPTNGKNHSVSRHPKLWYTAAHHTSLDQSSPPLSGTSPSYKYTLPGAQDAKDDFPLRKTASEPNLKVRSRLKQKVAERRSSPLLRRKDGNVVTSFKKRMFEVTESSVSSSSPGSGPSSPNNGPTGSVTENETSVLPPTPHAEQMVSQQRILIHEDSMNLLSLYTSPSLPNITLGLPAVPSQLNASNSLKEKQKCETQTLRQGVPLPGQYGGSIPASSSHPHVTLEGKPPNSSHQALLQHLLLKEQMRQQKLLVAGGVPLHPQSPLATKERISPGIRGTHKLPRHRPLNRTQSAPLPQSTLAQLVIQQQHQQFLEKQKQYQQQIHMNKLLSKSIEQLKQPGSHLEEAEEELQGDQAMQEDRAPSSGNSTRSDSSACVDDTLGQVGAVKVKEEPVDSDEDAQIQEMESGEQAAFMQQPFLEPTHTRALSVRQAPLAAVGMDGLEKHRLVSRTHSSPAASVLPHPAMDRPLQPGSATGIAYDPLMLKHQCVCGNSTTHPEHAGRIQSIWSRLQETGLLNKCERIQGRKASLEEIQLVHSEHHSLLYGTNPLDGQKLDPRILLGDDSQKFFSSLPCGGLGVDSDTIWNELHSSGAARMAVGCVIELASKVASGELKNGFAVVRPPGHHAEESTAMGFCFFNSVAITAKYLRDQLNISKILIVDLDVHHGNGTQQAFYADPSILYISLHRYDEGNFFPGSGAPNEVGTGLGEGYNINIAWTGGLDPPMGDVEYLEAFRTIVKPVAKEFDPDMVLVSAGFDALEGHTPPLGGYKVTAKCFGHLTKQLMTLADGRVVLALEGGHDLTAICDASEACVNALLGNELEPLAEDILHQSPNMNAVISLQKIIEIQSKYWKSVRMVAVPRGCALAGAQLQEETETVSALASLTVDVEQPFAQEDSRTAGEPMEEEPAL
Method: as §1

[5] = biological target: T5, HDAC10 (Homo sapiens, UniProt Q969S8); assay: Enzymatic test HDAC10; assay type: biochemical; conditions: Table 3
T5 construct: purchased BPS 50010
T5 sequence (Q969S8 1-669): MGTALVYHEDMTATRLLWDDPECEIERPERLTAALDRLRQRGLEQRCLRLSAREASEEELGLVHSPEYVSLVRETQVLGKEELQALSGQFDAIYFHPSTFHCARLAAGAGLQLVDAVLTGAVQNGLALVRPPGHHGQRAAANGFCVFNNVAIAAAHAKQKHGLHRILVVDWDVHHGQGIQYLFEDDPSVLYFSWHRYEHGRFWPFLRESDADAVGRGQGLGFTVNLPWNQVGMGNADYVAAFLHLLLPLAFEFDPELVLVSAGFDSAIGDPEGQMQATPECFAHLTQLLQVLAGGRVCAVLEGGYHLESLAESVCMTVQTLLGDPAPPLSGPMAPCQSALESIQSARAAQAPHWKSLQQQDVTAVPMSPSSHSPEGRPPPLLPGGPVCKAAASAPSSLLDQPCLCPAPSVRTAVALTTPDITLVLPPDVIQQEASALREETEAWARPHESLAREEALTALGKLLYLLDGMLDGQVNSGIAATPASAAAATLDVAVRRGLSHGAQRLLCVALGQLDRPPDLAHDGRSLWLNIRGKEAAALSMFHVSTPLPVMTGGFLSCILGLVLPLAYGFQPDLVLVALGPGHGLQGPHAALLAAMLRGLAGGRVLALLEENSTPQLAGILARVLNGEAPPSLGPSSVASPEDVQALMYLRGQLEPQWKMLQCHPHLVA

[6] = biological target: T6, HDAC11 (Homo sapiens, UniProt Q96DB2); assay: Enzymatic test HDAC11; assay type: biochemical; conditions: Table 3
T6 construct: purchased BML SE560
T6 sequence (Q96DB2 1-347): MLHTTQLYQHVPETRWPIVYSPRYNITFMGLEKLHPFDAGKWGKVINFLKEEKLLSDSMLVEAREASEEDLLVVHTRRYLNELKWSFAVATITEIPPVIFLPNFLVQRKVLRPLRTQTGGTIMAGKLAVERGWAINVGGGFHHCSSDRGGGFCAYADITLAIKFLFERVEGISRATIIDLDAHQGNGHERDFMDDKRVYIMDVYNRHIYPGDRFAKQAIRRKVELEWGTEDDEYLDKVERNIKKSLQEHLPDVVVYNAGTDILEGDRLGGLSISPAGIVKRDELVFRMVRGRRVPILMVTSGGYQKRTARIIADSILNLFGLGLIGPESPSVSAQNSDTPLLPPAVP
Method: as §1

[7] = test system: B 697 promyelocytic cell line; assay: Cytotoxicity on 697 cell line (CellTiter 96); assay type: cell-based; conditions: 72 hours incubation, read-out: 697 TOXICITY
Procedure, shortened: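 Cells seeded (2×10^4/well for 697, 5×10^5/well for PBMCs); compounds added after 24 h at 1–10000 nM (697) or 1.5–10000 nM (PBMCs) and incubated 72 h. Viability read by CellTiter 96 Aqueous One tetrazolium assay of mitochondrial function.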

[8] = Stability to Phase I metabolism in human S9 liver fraction; assay type: in vitro ADME
Procedure, shortened: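 Compounds were incubated with rat or human liver S9 fraction at 37 °C for up to 90 min. Reactions were quenched on ice with acidified acetonitrile and analysed by HPLC-UV or LC-MS/MS. Percent remaining versus time zero and intrinsic clearance were calculated.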

[9] = human liver S9 fraction, after 90 min, 37° C.

T1 sequence (Q92769 whole entry): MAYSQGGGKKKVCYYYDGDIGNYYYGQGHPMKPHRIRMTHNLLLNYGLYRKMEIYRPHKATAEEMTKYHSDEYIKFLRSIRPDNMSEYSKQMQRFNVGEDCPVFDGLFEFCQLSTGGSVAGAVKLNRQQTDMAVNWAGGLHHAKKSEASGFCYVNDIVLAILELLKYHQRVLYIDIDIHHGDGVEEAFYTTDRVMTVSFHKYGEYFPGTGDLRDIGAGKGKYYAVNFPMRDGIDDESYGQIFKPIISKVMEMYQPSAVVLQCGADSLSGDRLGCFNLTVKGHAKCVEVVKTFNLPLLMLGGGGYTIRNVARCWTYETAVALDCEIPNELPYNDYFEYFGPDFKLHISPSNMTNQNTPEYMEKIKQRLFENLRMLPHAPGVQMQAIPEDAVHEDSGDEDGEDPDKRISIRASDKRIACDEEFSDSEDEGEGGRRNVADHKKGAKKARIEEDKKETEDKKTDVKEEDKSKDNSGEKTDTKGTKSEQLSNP

Compound	IC50 [1]	IC50 [2]	IC50 [3]	IC50 [4]	IC50 [5]	IC50 [6]	IC50 [7]	residual percentage in human S9 fraction ([8]; human, 90 min, pH 7.4)	residual percentage in human S9 fraction [8, 9]
CN(C)S(=O)(=O)c1cccc(-c2nnn(Cc3ccc(C(=O)NO)cc3)n2)c1 [comp. 59, 4-[[5-[3-(dimethylsulfamoyl)phenyl]tetrazol-2-yl]methyl]benzenecarbohydroxamic acid]	2.32 µM	0.547 µM	2.49 µM	1.54 µM	0.542 µM	0.515 µM	–	–	–
O=C(NO)c1cc(F)c(Cn2nnc(-c3scc4c3OCCO4)n2)c(F)c1 [comp. 79, 4-[[5-(2,3-dihydrothieno[3,4-b][1,4]dioxin-5-yl)tetrazol-2-yl]methyl]-3,5-difluoro-benzenecarbohydroxamic acid]	6.75 µM	–	0.541 µM	0.514 µM	1.91 µM	0.659 µM	22.2 µM	–	–
Cn1c(Sc2c(F)cc(C(=O)NO)cc2F)nnc1-c1cccc2ccccc12 [comp. 2, 3,5-difluoro-N-hydroxy-4-((4-methyl-5-(naphthalen-1-yl)-4H-1,2,4-triazol-3-yl)thio)benzamide]	> 30 µM	–	1.46 µM	0.592 µM	14.1 µM	8.05 µM	6.08 µM	78%	–
Cn1c(Sc2c(F)cc(C(=O)NO)cc2F)nnc1-c1cccc(CN2CCCCCC2)c1 [comp. 167, 4-[[5-[3-(azepan-1-ylmethyl)phenyl]-4-methyl-1,2,4-triazol-3-yl]sulfanyl]-3,5-difluoro-benzenecarbohydroxamic acid]	–	–	–	–	–	–	43 µM	–	78%
Cn1c(Sc2c(F)cc(C(=O)NO)cc2F)nnc1-c1cccnn1 [comp. 179, 3,5-difluoro-4-[(4-methyl-5-pyridazin-3-yl-1,2,4-triazol-3-yl)sulfanyl]benzenecarbohydroxamic acid]	–	–	–	–	–	–	50.3 µM	–	79%
Cn1c(Sc2c(F)cc(C(=O)NO)cc2F)nnc1C(c1ccccc1)c1ccccc1 [comp. 98, 4-[(5-benzhydryl-4-methyl-1,2,4-triazol-3-yl)sulfanyl]-3,5-difluoro-benzenecarbohydroxamic acid]	4.24 µM	0.186 µM	1.61 µM	0.844 µM	1.48 µM	2.09 µM	–	–	–
O=C(NO)c1ccc(Cn2nnc(-c3ccccc3F)n2)cc1 [comp. 33, 4-[[5-(2-fluorophenyl)tetrazol-2-yl]methyl]benzenecarbohydroxamic acid]	0.81 µM	0.413 µM	1.91 µM	0.948 µM	0.441 µM	0.225 µM	–	–	–
O=C(NO)c1ccc(Cn2nnnc2-c2cccs2)cc1 [comp. 8, N-hydroxy-4-((5-(thiophen-2-yl)-1H-tetrazol-1-yl)methyl)benzamide]	–	–	–	–	–	–	8.88 µM	–	100%
Nc1ccc(-c2nnn(Cc3c(F)cc(C(=O)NO)cc3F)n2)cc1 [comp. 171, 4-[[5-(4-aminophenyl)tetrazol-2-yl]methyl]-3,5-difluoro-benzenecarbohydroxamic acid]	–	–	–	–	–	–	6.14 µM	–	74%
O=C(NO)c1ccc(Cn2nnc(-c3cccs3)n2)cc1 [comp. 50, 4-[[5-(2-thienyl)tetrazol-2-yl]methyl]benzenecarbohydroxamic acid]	0.958 µM	0.455 µM	1.95 µM	0.8 µM	0.398 µM	0.245 µM	–	–	–
Cn1c(Sc2c(F)cc(C(=O)NO)cc2F)nnc1-c1ncccc1F [comp. 180, 3,5-difluoro-4-[[5-(3-fluoro-2-pyridyl)-4-methyl-1,2,4-triazol-3-yl]sulfanyl]benzenecarbohydroxamic acid]	–	–	–	–	–	–	40.2 µM	–	80%
Nn1c(Sc2ccc(C(=O)NO)cc2)nnc1-c1ccc(OC(F)F)cc1 [comp. 28, 4-[[4-amino-5-[4-(difluoromethoxy)phenyl]-1,2,4-triazol-3-yl]sulfanyl]benzenecarbohydroxamic acid]	1.57 µM	0.27 µM	1.33 µM	0.328 µM	0.636 µM	0.568 µM	–	–	–
CCN(CC)S(=O)(=O)c1cccc(-c2nnc(Sc3ccc(C(=O)NO)cc3)n2C)c1 [comp. 66, 4-[[5-[3-(diethylsulfamoyl)phenyl]-4-methyl-1,2,4-triazol-3-yl]sulfanyl]benzenecarbohydroxamic acid]	1.03 µM	0.419 µM	0.481 µM	0.168 µM	1.34 µM	1.01 µM	–	–	–
O=C(NO)c1cc(F)c(Cn2nnnc2-c2ncccn2)c(F)c1 [comp. 125, 3,5-difluoro-4-[(5-pyrimidin-2-yltetrazol-1-yl)methyl]benzenecarbohydroxamic acid]	–	–	–	–	–	–	> 10 µM	83%	–
CN(C)c1cccc(-c2nnc(Sc3c(F)cc(C(=O)NO)cc3F)n2C)c1 [comp. 80, 4-[[5-[3-(dimethylamino)phenyl]-4-methyl-1,2,4-triazol-3-yl]sulfanyl]-3,5-difluoro-benzenecarbohydroxamic acid]	13.8 µM	0.548 µM	0.731 µM	0.426 µM	5.58 µM	2.82 µM	–	–	–
O=C(NO)c1cc(F)c(Cn2nnc(-c3cccs3)n2)c(F)c1 [comp. 65, 3,5-difluoro-4-[[5-(2-thienyl)tetrazol-2-yl]methyl]benzenecarbohydroxamic acid]	17.7 µM	1.08 µM	0.831 µM	0.995 µM	1.45 µM	0.975 µM	–	–	–
Cn1c(Sc2c(F)cc(C(=O)NO)cc2F)nnc1-c1ccc(CN2CCCCCC2)cc1 [comp. 168, 4-[[5-[4-(azepan-1-ylmethyl)phenyl]-4-methyl-1,2,4-triazol-3-yl]sulfanyl]-3,5-difluoro-benzenecarbohydroxamic acid]	–	–	–	–	–	–	36.9 µM	–	–
CCN(CC)S(=O)(=O)c1cccc(-c2nnc(Sc3ccc(C(=O)NO)cc3)n2N)c1 [comp. 61, 4-[[4-amino-5-[3-(diethylsulfamoyl)phenyl]-1,2,4-triazol-3-yl]sulfanyl]benzenecarbohydroxamic acid]	6.91 µM	0.494 µM	1.59 µM	0.884 µM	0.991 µM	0.904 µM	–	–	–
O=C(NO)c1cc(F)c(Cc2nnc(-c3ccncc3)s2)c(F)c1 [compound 195, 3,5-difluoro-4-[[5-(4-pyridyl)-1,3,4-thiadiazol-2-yl]methyl]benzenecarbohydroxamic acid]	–	–	–	–	–	–	3.12 µM	–	68%
